What all share (assay type): cell-based
For one series, the system named is NK-92MI cells. The experiment in a line: NK-92MI (NK) cell migration through HTS Transwell towards A549/GFP 3D tumor spheroids, flow cytometry. The following applies: 24 hours. As to the method: (§1) A549/GFP Cells (Cell Biolabs, Inc. Cat. No. AKR-209), were seeded into 96 well spheroid microplates (Corning Cat. No. 4515) at 2,000 cells per well in Iscove's Modification of DMEM (IMDM) (Corning Cat. No. 10-016-CM) supplemented with 10% fetal bovine serum (FBS) (Corning Cat. No. 35-010-CV). The next day, medium was replaced with […] IMDM 10% FBS containing 30 ng/mL of Human SDF-1 alpha (SDF-1α)/CXCL12 (Shenandoah Biotechnology Inc™ Cat. No. 100-20) or vehicle control. NK92-MI cells were stained for one hour with 80 μM CellTracker™ Blue CMHC Dye (Molecular Probes™ Cat. No. C2110) while simultaneously being treated with 2 μg/mL prostaglandin E2 (PGE2) (Tocris Cat. No. 2296) or vehicle control in IMDM without serum for an hour. NK-92MI cells were then re-suspended in serum free IMDM and seeded into the apical chamber of the inserts at 50,000 cells/insert. After 24 hours, inserts were removed and spheroid microplates were processed for flow cytometry. […] Cells were then analyzed via flow cytometry utilizing the Miltenyi Biotec MacsQuant®.
(§2) NK-92MI migration and tumoricidal activity of A549/GFP cells was assessed utilizing the commercially available Corning HTS 96 Transwell inserts with the Corning 96 well spheroid microplate, as shown in FIG. 4 and FIG. 5. […]

The subject of another series is A549/GFP tumor cells. The experiment in a line: NK induced cytotoxicity of A549/GFP tumor cells cultured in 3D. The following applies: NK cells exposed to SDF-1α without PGE2; 24 hours. As to the method: as §1, §2
The next series deals with LN229 spheroids. The experiment in a line: Cytotoxicity of LN229 spheroids after direct culture with compounds. The following applies: 48 hours of direct culture; N=12 wells per concentration.

As to `CCCCC[C@H](O)/C=C/[C@H]1[C@H](O)CC(=O)[C@@H]1C/C=C\CCCC(=O)O` [PGE2, prostaglandin E2], in the series on NK-92MI cells (NK cells exposed to 2 μg/mL PGE2 for an hour), the NK migration result is given as “significantly decreased”. Turning to SDF-1α, the “viability of A549/GFP tumor cells (tumoricidal activity of NK cells)” value in the series with A549/GFP tumor cells is on record as “lowest viability”. Further, the NK migration result in the series on NK-92MI cells (30 ng/mL SDF-1α present with the tumor spheroid in the spheroid microplate) is reported as “significantly increased”. Turning to `COc1cc(/C=C/C(=O)N2CCC=CC2=O)cc(OC)c1OC` [Piperlongumine], in the series with LN229 spheroids, the “cytotoxicity of LN229 spheroids” value is reported as “dose dependent cytotoxicity”.

For the origin of these results see US10859565B2, “High throughput 3D assay for immune cell and drug homing, migration and tumor cytotoxicity” (Corning Incorporated, priority 2017, dated 2020).
